Like-named read-outs stand apart in the source and are kept apart here.
Assay: Pharmacokinetics in hGLP-1R mice after oral dosing
Format: in vivo, male C57BL/6J hGLP-1R mouse
Details: male, C57BL/6J hGLP-1R, mouse, plasma, po; for concentration at 120 min: hGLP-1R mouse plasma collected at 120 min (IPGTT cohort); for MRT inf: read-out: MRT0-inf; for MRT last: read-out: MRT0-last; for AUC0-inf: read-out: AUC0-inf
Method: IPGTT (120 min)—PK bleeding: 40 μL blood samples (all treatment groups) were collected from mice under the jaw at IPGTT-120 min after blood glucose measurement into pre-chilled EDTA-2K tubes. Blood samples were processed for plasma by centrifugation at 4° C., 3200×g for 10 min. 15 μL plasma was stored at −80° C. for PK analysis. From 4 mice in Group 7 of the PD cohort, whole brain was collected after blood is harvested at 120 min post dose, rinsed with saline and patted dry and placed into a pre-weighed tube and stored at −80° C. collected for PK analysis.
PK bleeding group design is described in Table 9.
PK bleeding: 30 μL blood was collected at 0.25, 0.5, 1, 2, 4, and 8 h. Blood samples were processed for plasma by centrifugation at 4° C., 3200×g for 10 min. 12 μL plasma was collected at −80° C. for further analysis. From 3 mice in Group 7 of the PK cohort, whole brain was collected after blood is harvested at 8 hr post dose, rinsed with saline and patted dry and placed into a pre-weighed tube and stored at −80° C. collected for PK analysis.
For plasma: An aliquot of 3 μL sample was protein precipitated with 60 μL internal standard (100 ng/mL Labetalol & 100 ng/ml Dexamethasone & 100 ng/ml Tolbutamide & 100 ng/mL Verapamil & 100 ng/ml Glyburide & 100 ng/ml Celecoxib in ACN) and then the mixture was vortex-mixed for 10 min at 800 rpm and centrifuged for 15 min at 3220×g, 4° C.
The linear/log trapezoidal rule was applied in obtaining the PK parameters. Individual plasma concentration values that were below the lower limit of quantitation (LOQ) were excluded from the PK parameter calculation. The nominal dose levels and nominal sampling times were used in the calculation of all pharmacokinetic parameters.

[1] = 0.3 mg/kg, hGLP-1R mouse plasma, PO 0.3 mg/kg, read-out: Mean Concentration
[2] = 0.3 mg/kg, hGLP-1R mouse plasma, PO 0.3 mg/kg, individual animals, read-out: Concentration
[3] = 0.3 mg/kg, hGLP-1R mouse plasma, PO 0.3 mg/kg, individual mice
[4] = 0.3 mg/kg, hGLP-1R mouse plasma, PO 0.3 mg/kg, mean
[5] = 1 mg/kg, hGLP-1R mouse plasma, PO 1 mg/kg, individual animals, read-out: Concentration
[6] = 1 mg/kg, hGLP-1R mouse plasma, PO 1 mg/kg, read-out: Mean Concentration
[7] = 1 mg/kg, hGLP-1R mouse plasma, PO 1 mg/kg, individual mice
[8] = 1 mg/kg, hGLP-1R mouse plasma, PO 1 mg/kg, mean

With `N#Cc1ccc(COc2cccc(C3CCN(Cc4nc5ccc(C(=O)O)cc5n4C[C@@H]4CCO4)CC3)n2)c(F)c1` [Reference Compound A, reference compound] the concentration at 120 min (0.3 mg/kg, PO 0.3 mg/kg, read-out: Mean Concentration) was 7.16 ng/mL, the concentration at 0.25 h [1] was 24.9 ng/mL and the concentration at 0.5 h [2] was 19.6 ng/mL. It also gave a concentration at 0.5 h [1] of 17.3 ng/mL, a concentration at 1 h [1] of 16 ng/mL and a concentration at 2 h (0.3 mg/kg, hGLP-1R mouse plasma, PO 0.3 mg/kg) of 3.37 ng/mL. For the same molecule, the concentration at 4 h [2] was under 1 ng/mL, the MRT inf [3] was 56.6 min and the MRT last [3] was 48.2 min. The half-life (0.3 mg/kg, hGLP-1R mouse plasma, PO 0.3 mg/kg, individual mice, read-out: T1/2 (converted)) was 28.9 min, the Tmax (0.3 mg/kg, hGLP-1R mouse plasma, PO 0.3 mg/kg, individual mice, read-out: Tmax) was 30 min and the AUC0-inf [4] was 27.6 ng·h/mL. For the same molecule, the AUC(0-t) (0.3 mg/kg, hGLP-1R mouse plasma, PO 0.3 mg/kg, mean, read-out: AUC0-last) was 24.5 ng·h/mL, the Cmax (0.3 mg/kg, hGLP-1R mouse plasma, PO 0.3 mg/kg, mean, read-out: Cmax) was 27 ng/mL and the MRT inf [4] was 62.4 min. The MRT last [4] was 49.2 min, the half-life (0.3 mg/kg, hGLP-1R mouse plasma, PO 0.3 mg/kg, mean, read-out: T1/2 (converted)) was 36.2 min and the Tmax (0.3 mg/kg, hGLP-1R mouse plasma, PO 0.3 mg/kg, mean, read-out: Tmax) was 25 min. It also gave an AUC(0-t) (1 mg/kg, hGLP-1R mice, total, PO 1.0 mg/kg, read-out: AUClast Mean) of 85.5 ng·h/mL, a Cmax (1 mg/kg, hGLP-1R mice, total, PO 1.0 mg/kg, read-out: Cmax Mean) of 49.7 ng/mL and a Tmax (1 mg/kg, hGLP-1R mice, total, PO 1.0 mg/kg, read-out: Tmax Median) of 30 min. The concentration at 120 min (1 mg/kg, PO 1 mg/kg, read-out: Mean Concentration) was 21.4 ng/mL, the concentration at 0.25 h [5] was 43.5 ng/mL and the concentration at 0.25 h [6] was 35.7 ng/mL. For the same molecule, the concentration at 0.5 h [5] was 62.8 ng/mL, the concentration at 0.5 h [6] was 48.1 ng/mL and the concentration at 1 h [6] was 39.5 ng/mL. The concentration at 2 h (1 mg/kg, hGLP-1R mouse plasma, PO 1 mg/kg) was 14.5 ng/mL, the concentration at 4 h [5] was 3.59 ng/mL and the concentration at 4 h [6] was 3.4 ng/mL. It also gave a concentration at 8 h (1 mg/kg, hGLP-1R mouse plasma, PO 1 mg/kg, 8 h, read-out: Mean Concentration) of 2.42 ng/mL, an AUC0-inf [7] of 105 ng·h/mL and an AUC(0-t) (1 mg/kg, hGLP-1R mouse plasma, PO 1 mg/kg, individual mice, read-out: AUC0-last) of 101 ng·h/mL. It also gave a Cmax (1 mg/kg, hGLP-1R mouse plasma, PO 1 mg/kg, individual mice, read-out: Cmax) of 62.8 ng/mL, an MRT last [7] of 78 min and a Tmax (1 mg/kg, hGLP-1R mouse plasma, PO 1 mg/kg, individual mice, read-out: Tmax) of 30 min. The AUC0-inf [8] was 93.8 ng·h/mL, the AUC(0-t) (1 mg/kg, hGLP-1R mouse plasma, PO 1 mg/kg, mean, read-out: AUC0-last) was 85.5 ng·h/mL and the Cmax (1 mg/kg, hGLP-1R mouse plasma, PO 1 mg/kg, mean, read-out: Cmax) was 49.7 ng/mL. The MRT inf [8] was 161 min, the MRT last [8] was 109 min and the half-life (1 mg/kg, hGLP-1R mouse plasma, PO 1 mg/kg, mean, read-out: T1/2 (converted)) was 119 min. For the same molecule, the Tmax (1 mg/kg, hGLP-1R mouse plasma, PO 1 mg/kg, mean, read-out: Tmax) was 40 min, the Tmax (3 mg/kg, hGLP-1R mice, oral, across the doses tested (0.3, 1 and, for Compound 2, 3 mg/kg), read-out: median Tmax) was 30 min and the half-life (hGLP-1R male mice, oral, across doses, read-out: terminal T1/2) was under 120 min.
